In patent publication US9670217B2, “Process for preparing chlorins and their pharmaceutical uses” (UNIVERSIDADE DE COIMBRA, priority 2008, dated 2017):

Assays:
[1] = test system: SKMEL 188 (human melanoma); experiment: Cell photosensitization, filtered halogen lamp, MTT; type: cell-based; details: [Luzitin-Cl] = 20 μM
Procedure: Irradiation in in vitro experiments was performed using either a halogen lamp or a laser source. In the first case, a 500 W halogen lamp was placed 50 cm from the irradiated plate to insure a homogeneous irradiation. A cooled water filter (d=35 mm) and a 600 nm cut off filter were placed between the lamp and samples. The fluence rate reaching samples was 3 mW/cm^2. The emission spectrum of the halogen lamp was recorded using a spectroradiometer IL2000 (Spectrocube), FIG. 1. In the second case, three Lynx external cavity diode lasers TEC 500 powered by PilotPC 500 Laser Controllers (Sacher Lasertechnik, Marburg, Germany) were employed. The laser energies were stable at 40 mW for the 748 nm laser, 10 mW for the 649 laser and 10 mW for the 633 laser. The laser energies were regularly measured with a Coherent LaserCheck. In some in vitro experiments, the laser light was focused on an optical fiber through a collimator in microbench, and delivered to the cells. This system reduced the 748 nm laser light to 30 mW.
The cell lines employed in halogen lamp irradiation were the MCF7 (human breast carcinoma), SKMEL 188 (human melanoma) and S91/I3 (mouse melanoma) cells. They were used both for cytotoxicity and photocytotoxicity experiments. MCF7 cells were grown supplemented with 10% fetal calf (FBS) serum, 25 units/ml of penicillin, and 25 μg/ml of streptomycin. Human melanoma cells SKMEL-188 were grown in F10 medium supplemented with 10% fetal calf serum (FCS), 100 units/ml of penicillin, and 100 μg/ml of streptomycin. I3 subline of Cloudman S91 melanoma cells were cultured in RPMI 1640 medium supplemented with 100 units/ml of penicillin, 100 μg/ml streptomycin and 5% fetal calf serum (FCS) (Gibco BRL). […]
Cytotoxicity. Cell metabolic efficiency and viability were determined by the uptake and reduction of 3-(4,5-dimethylthiazol-2-yl)-2,5-diphenyl tetrazolium bromide (MTT) to an insoluble formazan dye by cellular microsomal enzymes. […] The 96-well culture plate was shaken for 0.5 min at room temperature and immediately read for optical density at 560 nm using an ELISA reader (GENios Plus; Tecan Trading AG, Switzerland). The cell survival was expressed by the absorbance changes of the formazan salt, and survival rate was given as the percent ratio of viable treated cells vs. the number of viable untreated cells. Number of cells was determined from linear regression of a calibration curve.
Cell photosensitization. […] The values were obtained from three independent experiments and expressed as percent of cell survival with reference to control cells, which were manipulated in the same manner but without incubation with photosensitizer and without illumination.

[2] = test system: CT26 mouse colon carcinoma; experiment: PDT of implanted CT26 tumors; type: in vivo, Balb/C mice; details: 10 mg/kg i.p. in PEG400, 24 h post-injection, 748 nm, 132 J/cm^2
Description: The other mice were Balb/C weighing 20-25 g, from the animal breeding facility of Charles River Laboratories (Barcelona). The mice were kept on a standard laboratory diet with free access to drinking water. The use of such animals for experimental purposes was approved by the Board of Centro de Neurociências e Biologia Celular (Coimbra).
The tumors grew to reach 5 mm in diameter in about one week after the implantation. No spontaneous necrosis was observed. The treatment was initiated when the tumor attained 5 mm in diameter in each animal. The day the tumors reached the treatment size, the mice were injected via i.p. with a dose of 10 mg/kg of Luzitin-FMet in PEG400. At 24 h post-injection, four mice were anesthetized with ketamine and xylazine, and treated with the Hamamatsu 748 nm diode laser described before, at a fluence rate of 100 mW/cm^2 for 22 minutes (total fluence of 132 J/cm^2). Four other mice were not treated and served as control. The mice were checked daily, the tumors were measured using two orthogonal measurements L and W (perpendicular to L) and the volumes were calculated using the formula V=L×W^2/2 and recorded.

Row | SMILES | LD50 (light dose to kill 50% of the cells) [1] [J/cm^2] | LD90 (light dose to kill 90% of the cells) [1] [J/cm^2] | tumor size after PDT vs non-irradiated controls [2]
1 | O=S(=O)(O)c1ccc(Cl)c(-c2c3nc(c(-c4cc(S(=O)(=O)O)ccc4Cl)c4ccc([nH]4)c(-c4cc(S(=O)(=O)O)ccc4Cl)c4nc(c(-c5cc(S(=O)(=O)O)ccc5Cl)c5ccc2[nH]5)CC4)CC3)c1 [Luzitin-Cl, 5,10,15,20-tetrakis(2-chloro-5-sulfonylphenyl)bacteriochlorin] | 0.1 | 0.32 | 
2 | CNS(=O)(=O)c1ccc(F)c(-c2c3nc(c(-c4cc(S(=O)(=O)NC)ccc4F)c4ccc([nH]4)c(-c4cc(S(=O)(=O)NC)ccc4F)c4nc(c(-c5cc(S(=O)(=O)NC)ccc5F)c5ccc2[nH]5)CC4)CC3)c1 [Luzitin-FMet, 5,10,15,20-tetrakis(2-fluoro-5-N-methylsulfamoylphenyl)bacteriochlorin] |  |  | smaller than the average size of the control animals and in one case the tumor completely disappeared
